pIC50: −log10 of the molar value.
Columns and labels:
Procathepsin L = Procathepsin L (Homo sapiens, UniProt P07711); experiment: Inhibition of Cathepsin L from human kidney; type: tissue-based
Interstitial collagenase = molecular target: T1, Interstitial collagenase (Homo sapiens, UniProt P03956); experiment: Inhibition of Matrix metalloprotease-1
T1 sequence (P03956 whole entry): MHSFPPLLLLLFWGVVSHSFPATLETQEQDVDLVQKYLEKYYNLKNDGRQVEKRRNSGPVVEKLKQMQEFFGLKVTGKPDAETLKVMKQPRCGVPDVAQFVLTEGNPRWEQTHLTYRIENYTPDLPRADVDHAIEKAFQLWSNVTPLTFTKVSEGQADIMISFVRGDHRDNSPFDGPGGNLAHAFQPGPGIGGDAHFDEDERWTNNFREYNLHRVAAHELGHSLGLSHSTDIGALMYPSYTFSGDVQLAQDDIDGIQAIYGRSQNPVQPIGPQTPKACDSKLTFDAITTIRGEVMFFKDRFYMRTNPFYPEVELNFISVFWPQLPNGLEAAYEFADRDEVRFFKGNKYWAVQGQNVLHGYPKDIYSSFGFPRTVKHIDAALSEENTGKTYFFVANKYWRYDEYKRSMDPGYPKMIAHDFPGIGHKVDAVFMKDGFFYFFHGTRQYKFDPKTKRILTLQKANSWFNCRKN

Chain of Procathepsin L (P07711 whole entry): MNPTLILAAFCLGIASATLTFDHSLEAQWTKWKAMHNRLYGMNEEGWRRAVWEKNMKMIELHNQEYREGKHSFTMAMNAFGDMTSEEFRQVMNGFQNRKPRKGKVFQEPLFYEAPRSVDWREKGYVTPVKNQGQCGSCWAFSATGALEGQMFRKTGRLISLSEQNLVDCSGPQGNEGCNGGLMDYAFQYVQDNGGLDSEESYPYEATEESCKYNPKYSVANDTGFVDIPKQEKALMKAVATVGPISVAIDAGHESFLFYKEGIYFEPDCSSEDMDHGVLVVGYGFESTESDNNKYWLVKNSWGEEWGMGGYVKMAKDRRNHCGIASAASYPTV

| Compound | pIC50 (Procathepsin L) | pIC50 (Interstitial collagenase) |
| --- | --- | --- |
| CNC(=O)[C@H](Cc1ccccc1)NC(=O)[C@@H](CC(=O)NO)CC(C)C | < 6.00 |  |
| C[C@@H](C=O)NC(=O)[C@H](Cc1ccccc1)NC(=O)OCc1ccccc1 | 8.52 | < 6.00 |
| CC(C)C[C@H](CC(=O)NO)C(=O)N[C@@H](Cc1ccccc1)C(=O)NCC=O | 5.37 | 7.92 |
| CC(C)C[C@H](CC(=O)NO)C(=O)N[C@@H](Cc1ccccc1)C(=O)N[C@H](C=O)CC(C)C | 8.15 | 5.85 |
| CC(C)C[C@H](CC(=O)NO)C(=O)N[C@@H](CC(C)C)C(=O)N[C@@H](C)C=O | 7.64 | 7.33 |
| CC(C)C[C@H](CC(=O)NO)C(=O)N[C@@H](Cc1ccccc1)C(=O)N[C@@H](C)C=O | 7.82 | 7.60 |
| CCOC(OCC)[C@H](C)NC(=O)[C@H](Cc1ccccc1)NC(=O)[C@@H](CC(=O)NO)CC(C)C | < 6.00 | 7.54 |

— ChEMBL document CHEMBL1135034, “Design and synthesis of dual inhibitors for matrix metalloproteinase and cathepsin” (Bioorg Med Chem Lett, 2002)
